“Also recorded” adds a separate entry of the source. No end group written: not given here.
How the values were obtained:
GPRC6A [1] = test system: GPRC6A; design: method as in 2 sources, ref 5 = [5]; PMID 15576628; doi:10.1124/mol.104.007559; 5. Wellendorph P Deorphanization of GPRC6A: a promiscuous L-alpha-amino acid receptor with preference for basic amino acids Molecular Pharmacology 2005 67 3 589 97 10.1124/mol.104.007559 15576628 ||| ref 6 = [6]; PMID 20947496; doi:10.1074/jbc.M110.158063; 6. Pi M Parrill AL Quarles LD GPRC6A mediates the non-genomic effects of steroids Journal of Biological Chemistry 2010 285 51 39953 64 10.1074/jbc.M110.158063 20947496 PMC3000977; details: cited from earlier work
GPRC6A [2] = assay: Displacement of labelled ucOCN by SHBG141–161 on HEK-293 cells transfected with human Gprc6a; format: binding; details: for staining signal for labelled ucOCN vs ucOCN alone: 1 nM biotinylated ucOCN, 1 h room temperature, binding buffer pH 7.4, streptavidin-FITC, image analysis, mean of 3 independent experiments
Description: The binding of SHBG141–161 to GPRC6A was assessed by displacement experiments as previously described. To this aim, HEK-293 cells were transfected with human Gprc6a gene (Fig. 2C-I,II). The efficiency of the procedure was evaluated by real-time PCR, allowing the identification of a specific signal for Gprc6a gene only in transfected cells. Accordingly, a specific membrane signal was observed by immunostaining only in transfected cells. On these bases, HEK-293 cells transfected with Gprc6a gene were incubated with 1 nM labelled ucOCN and SHBG141–161 at the concentration of 0, 10 nM (10×) and 100 nM (100×) (Fig. 2D-I,II).
Human embryonic kidney (HEK)-293T cells (passage number 11 to 15) were obtained from the American Type Culture Collection (ATCC®-LGC Standards Sesto San Giovanni, MI, Italy) and cultivated in DMEM [ATCC®; RRID 30–2002) and supplemented with 10% fetal bovine serum (Euroclone, Milano, Italy; RRID: ECS0180L) and 1%antibiotic/antimycotic mixture in a humidified incubator at 37 °C with 5% CO2. Expression vector containing wild-type (WT) human GPRC6A cDNA (OriGene Technologies, Inc) was used according to manufacturer’s instruction. Briefly, cultured HEK- 293 T cells at 70% of confluence were transfected by FuGENE 6 (Roche Diagnostics) with 1 μg/well of GPRC6A-pcDNA and maintained for 48 hours, followed by overnight starving in serum-free condition to achieve quiescence. HEK-293T cells transfected with empty vector were used as negative controls. Starved cells were fixed in 1% paraformaldehyde and used for binding assessment by incubation for 1 h at room temperature with biotinylated ucOCN, with or without SHBG141–161 in ice-cold-binding buffer (50 mM Tris-HCl [pH 7.4], 10 mM MgCl2, 0.1 mM EDTA, and 0.1% BSA) according to the different experimental conditions used. After extensive washing in cold PBS, samples were incubated with streptavidin-Fluorescein isothiocyanate (FITC) (dilution 1:200; Sigma-Aldrich; RRID: S3762). Evaluation of GPRC6A expression by immunofluorescence was performed as described for β-TC6 (see below). Computer assisted image analysis was performed by the ImageJ image analysis software, powered by routines specifically developed by our group as previously described[43],[44]. […]

MA-10 cells = assay: Testosterone (T) release from Leydig MA-10 cells (GPRC6A-mediated); format: cell-based, Mouse; details: for T release vs basal: 48 hours; for agonist activity (T release) after GPRC6A blockade: pre-incubation with anti-GPRC6A polyclonal antibodies 20 mg/mL, 30 minutes at 37 °C; for effect of SHBG pre-incubation on T release induced by SHBG141–161: then SHBG141–161 10^−11M
Description: Human ucOCN was obtained from chemical decarboxylation of cxOCN, purchased from Bachem AG (Bachem, Bubendorf, Switzerland), as previously described. For displacement experiments, an aliquot ucOCN underwent chemical biotinylation as previously described[9],[41]. Unliganded human SHBG was purchased by […], Belgium). Human chorionic gonadotropin Gonasi was purchased by IBSA Farmaceutici Srl (Italy). Mouse Leydig-carcinoma cell line MA-10 (passage number 3 to 8; ATCC®; RRID: CRL-1573) were cultured on 0,1% gelatin/PBS-coated plasticware according to the manufacturer's instructions and maintained in DMEM:F12 Medium (ATCC®; RRID: 30-2006; pH 7,4) supplemented with additional 20 mM HEPES and horse serum to a final concentration of 15%. For immunofluorescence experiments, cells were let attach on 0,1% gelatin/PBS-coated round-coverslips (ø 13 mm, Menzel-Gläser-VWR International Srl, Milan, Italy) and then washed and fixed with 4% paraformaldehyde/PBS solution at room temperature for 15 min. After membrane permeabilization with 1% Triton X/PBS solution for 10 min at room temperature, cells were saturated with 5% bovine serum albumin/5% normal donkey serum/PBS solution for 1 hour and then incubated with rabbit-polyclonal anti-mouse GPRC6A IgG (dilution 1:200; Santa Cruz Biotechnology Inc. Heidelberg Germany; RRID: sc-67302,) and goat-polyclonal anti-human INSL3 IgG (dilution 1:200; Santa Cruz Biotechnology Inc; RRID: sc-48550) at 4 °C overnight. After extensive washing, primary immunoreaction was detected by appropriate secondary reagent, respectively: biotin conjugated-anti rabbit IgG (dilution 1:100; Vector Laboratories, Peterborough, UK; RRID: BA-1000) followed by Streptavidin […], (dilution 1:100; GeneTex/Prodotti Gianni, Milano, Italy; RRID: GTX85907) and FITC conjugated-anti goat IgG (dilution 1:100; Abcam, Milan, Italy; RRID: ab6737). Samples were then counterstained with 4',6-diamidino-2-phenylindole (DAPI), mounted with anti-fade buffer and then analyzed with Video-Confocal (VICO) fluorescence microscope (Nikon, Firenze, Italy). […] RRID: KGE010) according to manufacturer's instructions. Receptor blockade experiments were performed by pre-incubating cultured cells with anti-GPRC6A polyclonal antibodies (final concentration of […]; Santa Cruz Biotechnology Inc; RRID: sc-67302) for 30 minutes at 37 °C as previously described.

β-TC6 cells = assay: Insulin release from Langerhans β-TC6 cells (GPRC6A-mediated); format: cell-based, Mouse; details: for insulin release vs basal: 2 hours at 37 °C in 3 mM glucose/HBSS; for agonist activity (insulin release) after GPRC6A blockade: pre-incubation with anti-GPRC6A polyclonal antibodies 20 mg/mL, 30 minutes at 37 °C; for effect of SHBG pre-incubation on insulin release induced by SHBG141–161: then SHBG141–161 10^−11M
[3] = Far-UV circular dichroism; format: physicochemical; details: 25 °C, PBS (20 mM sodium phosphate, pH 7.4, 0.1 M NaCl), 70 μg/ml
Description: The conformational properties of SHBG141–161 were investigated by far-UV circular dichroism (CD) on a Jasco J-710 spectropolarimeter, equipped with a Peltier temperature control system. The molar concentration of the peptide was determined spectrophotometrically by recording the absorbace at 257 nm, using an absorptivity value for phenylalanine of 200 M-1·cm-1. CD spectra were recorded at 25 °C in a 1-mm pathlength quartz cell at a scan-speed of 10 nm/min, with a response time of 16 sec, and resulted from the average of two accumulations after baseline subtraction. CD signal was expressed as the mean residue ellipticity (θ) = θobs·MRW/(10·l·c), where θobs is the observed signal in degrees, MRW is the protein mean residue weight, l is the cuvette pathlength in cm, and c is the protein concentration in g/ml.

[4] = test system: extracellular domain of GPRC6A; details: previous study; immunoprecipitation assays; cited from earlier work
Description: To this regard, our group recently reported that sex hormone-binding protein (SHBG), the major blood carrier of T, is able to bind the extrace ... || If on one hand these represent encouraging results about the reliability of GPRC6A as therapeutic target, on the other hand, drug peptides and biologics drown great interest for their favorable safety profile, target specificity and pharmacokinetics compared with traditional small-molecule drugs. To this regard, the metabotropic receptor GPRC6A has been widely investigated as the mediator of non-genomic effects of androgens.

[5] = SHBG141–161 concentrations greater than 10^−9 M, preliminary experiments, data not shown
[6] = SHBG 10^−14-10^−9M, any of the concentration tested
[7] = increasing SHBG, 1 hour at 37 °C

Molecule: N=C(N)NCCC[C@H](N)C(=O)O [L arginine]
- activation of GPRC6A (GPRC6A [1]): activated

Molecule: NCCCC[C@H](N)C(=O)O [L-lysine]
- activation of GPRC6A (GPRC6A [1]): activated

Molecule: C[C@]12CC[C@H]3[C@@H](CCC4=CC(=O)CC[C@@]43C)[C@@H]1CC[C@@H]2O [T, testosterone]
- non-genomic action mediated by GPRC6A (GPRC6A [1]): mediator of non-genomic action of T

Molecule: IALGGLLFPASNLRLPLVPAL [SHBG141–161]
- competition with ucOCN for binding to GPRC6A (overall result) (GPRC6A [2]; 0, 10 nM and 100 nM SHBG141–161, 1 nM labelled ucOCN): progressive reduction of the signal for labelled ucOCN; also recorded: compete with ucOCN for the binding to GPRC6A; also recorded: partial competition activity
- staining signal for labelled ucOCN vs ucOCN alone (GPRC6A [2]; SHBG141–161 10 nM (10×)): significant reduction of the staining signal for ucOCN
- staining signal for labelled ucOCN vs ucOCN alone (GPRC6A [2]; SHBG141–161 100 nM (100×)): significant reduction of the staining signal for ucOCN
- T release vs basal (MA-10 cells; SHBG141–161, particularly 10^−13 to 10^−11M, five independent experiments): increase of T release
- T release at high concentration (MA-10 cells; [5]): not effective
- agonist activity (T release) after GPRC6A blockade (MA-10 cells): completely abolished the agonist activity
- insulin release vs basal (β-TC6 cells; SHBG141–161 10^−13 to 10^−10 M, five independent experiments): significant increased insulin levels in culture supernatants
- insulin release at high concentration (β-TC6 cells; [5]): not effective
- agonist activity (insulin release) after GPRC6A blockade (β-TC6 cells): completely abolished the agonist activity
- conformation by far-UV CD [3]: random or non-regular conformation
- far-UV CD minimum [3]: 200 nm

Molecule: calcium
- activation of GPRC6A (GPRC6A [1]): activated

Molecule: magnesium
- activation of GPRC6A (GPRC6A [1]): activated

Molecule: ucOCN: Human ucOCN was obtained from chemical decarboxylation of cxOCN, purchased from Bachem AG (YLYQWLGAPVPYPDPLEPRREVCELNPDCDELADHIGFQEAYRRFYGPV; ends and bridges not checked; also: undercarboxylated by chemical decarboxylation of carboxylated OCN; UniProt P02818 52-100, looked up)
- membrane signal of labelled ucOCN alone, transfected cells (GPRC6A [2]; 1 nM labelled ucOCN, HEK-293 + GPRC6A): clear membrane signal associated with GPRC6A expression
- staining of labelled ucOCN, non-transfected cells (GPRC6A [2]; 1 nM labelled ucOCN, HEK-293 without GPRC6A): absence of significant staining in non-transfected cells
- agonist activity (T release) after GPRC6A blockade (MA-10 cells): completely abolished the agonist activity
- T release vs basal (MA-10 cells; ucOCN 0,5–2 nM): progressive and significant increase of T release
- agonist activity (insulin release) after GPRC6A blockade (β-TC6 cells): completely abolished the agonist activity
- insulin release vs basal (β-TC6 cells; ucOCN 0,5–2 nM): significant and dose dependent increase of insulin release

Molecule: zinc
- activation of GPRC6A (GPRC6A [1]): activated

B1: SHBG: Unliganded human SHBG was purchased by Affiland; the major blood carrier of T (protein, UniProt P04278 30-402, looked up)
Sex hormone-binding globulin: LRPVLPTQSAHDPPAVHLSNGPGQEPIAVMTFDLTKITKTSSSFEVRTWDPEGVIFYGDTNPKDDWFMLGLRDGRPEIQLHNHWAQLTVGAGPRLDDGRWHQVEVKMEGDSVLLEVDGEEVLRLRQVSGPLTSKRHPIMRIALGGLLFPASNLRLPLVPALDGCLRRDSWLDKQAEISASAPTSLRSCDVESNPGIFLPPGTQAEFNLRDIPQPHAEPWAFSLDLGLKQAAGSGHLLALGTPENPSWLSLHLQDQKVVLSSGSGPGLDLPLVLGLPLQLKLSMSRVVLSQGSKMKALALPPLGLAPLLNLWAKPQGRLFLGALPGEDSSTSFCLNGLWAQGQRLDVDQALNRSHEIWTHSCPQSPGNGTDASH
- effect of SHBG pre-incubation on T release induced by SHBG141–161 (MA-10 cells; SHBG 10^−12M, 1 hour at 37 °C): complete blunt of the secretory stimulating activity
- effect of SHBG pre-incubation on T release induced by SHBG141–161 (MA-10 cells; SHBG 10^−13M, 1 hour at 37 °C): significant reduction of T release; also recorded: significantly blunted
- induction of T release by SHBG alone (MA-10 cells; [6]): ineffective
- effect of SHBG pre-incubation on T release induced by hCG (MA-10 cells; SHBG, any of the concentration tested, 1 hour at 37 °C, then hCG 2,5 nM): negligible effect on T and insulin release
- effect of SHBG pre-incubation on T release induced by SHBG141–161 (MA-10 cells; [7]): progressive reduction of T and insulin release
- effect of SHBG pre-incubation on insulin release induced by SHBG141–161 (β-TC6 cells; SHBG 10^−12M, 1 hour at 37 °C): complete blunt of the secretory stimulating activity
- induction of insulin release by SHBG alone (β-TC6 cells; [6]): ineffective
- effect of SHBG pre-incubation on insulin release induced by IBMX/glucose (β-TC6 cells; SHBG, any of the concentration tested, 1 hour at 37 °C, then 15 mM glucose + 100 μM IBMX): negligible effect on T and insulin release
- effect of SHBG pre-incubation on insulin release induced by SHBG141–161 (β-TC6 cells; [7]): progressive reduction of T and insulin release
- binding to GPRC6A [4]: simple binding observed through immunoprecipitation assays; also recorded: able to bind the extracellular domain of GPRC6A
